# Test results from PMC9234961 (Journal of Medicinal Chemistry, 2022).
# Values joined by “and” are separate entries in the source; they are usually repeats but may differ in a detail not shown here. Equal entries are not always repeated. Where two headings read alike, the source gives them in different places. Marks after values point to notes of the source that are not given here.
# How the values were obtained:
# [1] = target: endogenous BCL6 in OCI-Ly1 cells (Homo sapiens, UniProt P41182); experiment: cell-based; settings: for degradation of BCL6 (in words): OCI-Ly1 MSD assay; for MSD degrader assay [OCI-Ly1] Dmax: mean maximal degradation of BCL6
# BCL6 in Karpas 422 cells = BCL6 in Karpas 422 cells (Homo sapiens, UniProt P41182); experiment: cell-based; settings: read-out: MSD degrader assay [Karpas 422] DC50; Karpas 422 cells
# Procedure: 3.2 Mesoscale Discovery (MSD) Degradation Assay
# An MSD assay was developed for screening of compounds to determine the degradation of endogenous BCL6 in OCI-Ly1 cells. Briefly, test compounds in DMSO or DMSO alone to a total of 1332.5 nL/well were dispensed to a 96-well Nunc™ Edge 2 plate (ThermoFisher Scientific, 267544) using an Echo® 550 acoustic […]
# supplemented with 10% heat-inactivated fetal bovine serum (Sera Plus, PAN Biotech, P30-3702) were […]
# incubation at 37 °C + 5% CO2 the plate was centrifuged at 300 x g for 5 minutes. […]
# plate washer for all wash and aspiration steps, media was removed and cells were rinsed with PBS, centrifuged as before and PBS removed. Cells were lysed in 50 µL ice-cold lysis buffer at pH 7.4 containing 50 mM Tris-HCl, 150 mM NaCl, 1 % Triton X-100 (v/v), 1 mM PMSF, 1 mM activated sodium vanadate, 1 mM EDTA, phosphatase inhibitors 2 and 3 (1:50 dilution) and protease inhibitor cocktail (1:100 dilution).
# 20 °C or continuing the assay. A 96-well MSD standard bind plate (MSD, L15XA-3) which was coated overnight with 1 µg/mL anti-human BCL6 goat antibody in PBS (R&D Systems, AF5046) was blocked in 3% BSA in TBS + 0.1% Tween-20 for 1 hour with shaking. Wells were emptied thoroughly before 40 µL/well of lysate was transferred from the cell plate. The MSD plate was incubated at RT for 1 hour with shaking then washed three times with TBS + 0.1 % Tween-20. Antibodies were prepared in TBS + 0.1% Tween-20 + 1% BSA. Anti-human BCL6 rabbit antibody (Cell Signalling Technology, 14895S) was added at 1:100 dilution at 25 µL/well. The plate was incubated and washed as before. MSD Sulfo-tag anti-rabbit detection antibody (MSD, R32AB-1) at 1:1000 dilution at 25 µL/well was added. The plate was incubated and washed as before and MSD Gold read buffer (MSD R92TG) at 1:1 dilution with water at 150 µL/well was added. The plate was read within 10 minutes on the MSD Quickplex reader. The % inhibition at each […]
# 3.3 Cell proliferation assay
# Aldrich) supplemented with 10% FBS (Gibco). […]
# transferred onto the cells.
# Assay plates containing cells […]
# [2] = Microsomal clearance assay (MLM); format: in vitro ADME; settings: mouse liver microsomes, 1 μM compound; for microsomal CLint at 0.5 h, 1 µM: female, CD1, pH 7.4
# Procedure: (§1) 6. Supplementary experimental: in vitro DMPK assays
# (§2) 6.1 Microsomal clearance assay
# (§3) Microsomal clearance was determined in female CD1 mice, female Sprague–Dawley rats, and mixed gender human liver microsomes obtained from BioIVT (Peterborough, U.K.) following incubation of 1 μM compound at 37 °C in 0.5 mg/mL microsomal protein, 3 mmol/L MgCl2, 1 mmol/L NADPH, 2.5 mmol/L and 10 mmol/L phosphate buffer (pH 7.4) (all purchased from Sigma-Aldrich, Gillingham, U.K). Reactions were started by addition of the cofactors following 10 min preincubation of microsomes with test compound and were terminated at −1, 0, 5, 10, 15, and 30 min with three volumes of ice-cold methanol containing internal standard. Samples were centrifuged at 2800g for 30 min at 4 °C and the supernatants analyzed.
# (§4) Control incubations were prepared as above with omission of cofactors. Compound measurements were […]
# (§5) separation with a 3 min gradient of 0.1% formic acid in methanol on a Kinetex C18, 50 × 2.1 mm 2.6 μm UPLC column (Phenomenex, Macclesfield, UK). […]
# [3] = Microsomal clearance assay (HLM); format: in vitro ADME; settings: human liver microsomes, 1 μM compound
# Procedure: as §1, §2, §3, §4, §5
# [4] = Microsomal clearance assay (RLM); format: in vitro ADME; settings: rat liver microsomes, 1 μM compound
# Procedure: as §1, §2, §3, §4, §5
# [5] = logD7.4 assay (Chrom log D method); format: physicochemical; settings: pH 7.4, read-out: Measured logD7.4
# Procedure: Calibration, validation and in-house compounds were prepared at 1mM in 10% DMSO / 90% Trizma solution (100mM Trizma in 75/25 methanol/water). 3 µL standard injections (with needle wash) of all calibration, validation and in-house samples were made onto a Phenomenex Luna C8 column (3µm, 100 x 4.6 mm, 100A, Phenomenex, Torrence, USA). Chromatographic separation at 30°C was carried out using […]
# 2 mL/min. The gradient was held at 0:100 water:organic for 0.8 minutes, then returned to the starting conditions of 95:5 water:organic for 0.2 minutes. The column was re-equilibrated for 5 minutes at the […]
# in vitro [6] = format: in vitro ADME; settings: pH 7.4, 10 µM, 16 h at 30 °C
# human BCL6 BTB domain [7] = target: T1, human BCL6 BTB domain (Homo sapiens, UniProt P41182); settings: for BCL6 TR-FRET pIC50 mean: mean of replicates
# Procedure: (§6) Assays were performed in a 384-well black Proxiplate (Perkin Elmer) containing 1 nM Trx-6xHis-BCL6 (in
# (§7) anti-6xHis-Terbium cryptate (CisBio Bioassays, France), in assay buffer (25 mM Hepes pH8, 100 mM NaCl,
# (§8) 0.05% Tween20, 0.5 mM TCEP, 0.05% bovine serum albumin). Test compounds in DMSO or DMSO alone
# (§9) were added to the wells using an ECHO550 acoustic dispenser (Labcyte Inc) to give the appropriate test
# (§10) concentration in 0.7% v/v DMSO final. After 2 hours incubation at room temperature the plate was read
# (§11) The % inhibition at each concentration was calculated by normalising FRET ratio to the
# (§12) appropriate high (DMSO with all reagents) and low (DMSO without BCL6) controls. IC50 values were
# (§13) determined using GraphPad Prism 6.0 or Dotmatics (Bishops Stortford, UK) software by fitting the
# (§14) normalised data to a sigmoidal four-parameter logistic fit equation.
# human BCL6 BTB domain [8] = target: T1, human BCL6 BTB domain; experiment: biochemical; settings: BCL6 TR-FRET IC50 individual replicates, single replicate values
# Procedure: as §6, §7, §8, §9, §10, §11, §12, §13, §14
# HT = experiment: Cell proliferation assay (14 days), HT; settings: Homo sapiens, HT, 336 h, read-out: HT GI50
# Procedure: (§15) Cells were seeded in 96-well culture plates at a density of 2500 cells/well in RPMI-1640 medium (Sigma-
# (§16) Aldrich) supplemented with 10% FBS (Gibco). Compounds were initially dispensed into 96-well U-bottom
# (§17) plates using an Echo 550 acoustic dispenser (Labcyte Inc.), then diluted in RPMI-1640 medium and
# (§18) transferred onto the cells. Cells were treated with 8 compound concentrations in duplicate, ranging from
# (§19) with compound for 14 days, with medium changes at days 3, 7 and 10 carried out as follows: fresh 96-well
# (§20) cell culture plates were prepared containing 100 µl medium plus compound at the assay concentrations
# (§21) (white plates were used on day 10 to optimise luminescence measurement). Assay plates containing cells
# (§22) were vortexed to mix and cell density in one control well was counted using a Coulter Z2 cell counter
# (§23) (Beckman Coulter). The volume of medium containing 2500 cells in the control well was calculated and this volume of cells was transferred from every well of the assay plates to the corresponding well of the fresh plates containing compound. After 14 days, CellTiter Glo reagent (Promega) was added to the medium in each well of the assay plate at a ratio of 1:2, mixed on a plate shaker, then incubated at room temperature for 10 minutes. Luminescence was measured using an Envision plate reader (Perkin Elmer) and the relative luminescence at each compound concentration, compared to DMSO alone, was calculated. GI50 were determined using a 4-parameter curve fit in Dotmatics (Bishops Stortford, UK).
# OCI-Ly1 = experiment: Cell proliferation assay (14 days), OCI-Ly1; settings: Homo sapiens, OCI-Ly1, 336 h, read-out: OCI-Ly1 GI50
# Procedure: as §15, §16, §17, §18, §19, §20, §21, §22, §23
# OCI-Ly3 = experiment: Cell proliferation assay (14 days), OCI-Ly3; settings: Homo sapiens, OCI-Ly3, 336 h, read-out: OCI-Ly3 GI50
# Procedure: as §15, §16, §17, §18, §19, §20, §21, §22, §23
# SU-DHL-4 = experiment: Cell proliferation assay (14 days), SU-DHL-4; settings: Homo sapiens, SU-DHL-4, 336 h, read-out: SU-DHL-4 GI50
# Procedure: as §15, §16, §17, §18, §19, §20, §21, §22, §23
# Karpas 422 = experiment: Cell proliferation assay (14 days), Karpas 422; settings: Homo sapiens, KARPAS-422, 336 h, read-out: Karpas 422 GI50
# Procedure: as §15, §16, §17, §18, §19, §20, §21, §22, §23
# HPLC solubility assay = format: physicochemical; settings: solubility by HPLC in PBS buffer and 1% DMSO at pH 7.4
# Procedure: 11 4.2 HPLC solubility assay
# 10 µL of 10 mM DMSO stock solution was pipetted into a micro centrifuge tube (1.5 mL, Sarstedt part-no.
# seconds on vortex mixer (Grant-bio vortex mixer) to create 100 µM solution with 1% DMSO. Following shaking of the suspension on a Bohdan Shaker at 500 rpm for 2 hours at room temperature (20 °C), it was
# The concentration of the solubilized compound in solubility sample is measured by HPLC with UV detection using an external standard which was prepared by pipetting 10 µL of the same batch of
# The detail of the HPLC method is as following: chromatographic separation at 30°C is carried out over a 5 minute gradient elution method from 90:10 to 10:90 water:methanol (both modified with 0.1% formic acid) at a flow rate of 1.5 mL/min. Calibration curve is prepared by injecting 0.5, 2.5, and 5 µL of compound
# in vitro [9] = format: in vitro ADME; settings: fraction unbound in OCI-Ly1 DC50 assay medium
# NMR solubility assay = format: physicochemical; settings: kinetic solubility by NMR in HEPES buffer at pH 8, 4% DMSO; read-out: Aq. Sol.
# Procedure: 4. Supplementary experimental: physicochemical assays
# 0.5 mM TCEP, 10% D2O) was pipetted into the same well and mixed by up-down pipetting 3 times to create […]
# It was then separated by centrifugation (1000 rpm
# The plate was then sealed and incubated at room temperature for 20 hours, […]
# 165 µL of the supernatant was transferred to a 3 mm NMR tube (Bruker, Part No. Z112272) using liquid handler SamplePro Tube SJ S (Bruker). The concentration of the solubilized compound in solubility sample is measured by quantitative 1H-NMR using a single external standard (200 µM caffeine (Sigma, C1778) in PBS (pH 7.4) with 1% DMSO-d6).
# The detail of the NMR method is as following: NMR data was collected on a Bruker Avance Neo 600 spectrometer equipped with a 5 mm TCI-CryoProbe. The 1H spectrum was referenced to the internal deuterated solvent. The operating frequency for 1H was 600 MHz. All NMR data were acquired at the […]
# 1H-NMR spectrum was acquired using a Bruker standard 1D lc1pngppsf2 pulse sequence with 32 scans.
# The sweep width was 6.2 ppm with O1P set to 8.8 ppm, and the FID contained 16k time-domain data points. Relaxation delay was set to 20 sec. Water signal was suppressed. […]
# in vitro [10] = format: in vitro ADME; settings: BALB/c; mouse plasma, rapid equilibrium dialysis; read-out: mouse (BALB\c) PPB (converted)
# [11] = In vivo pharmacokinetic study in Balb/C mice; design: species or system mouse; settings: female Balb/C mice
# [12] = OCI-Ly1, read-out: MSD degrader assay [OCI-LY1] Dmax individual replicates, single replicate values
# [13] = OCI-Ly1, read-out: MSD degrader assay [OCI-Ly1] Dmax, mean maximal degradation of BCL6, OCI-Ly1 cells, 2 h
# [14] = read-out: MSD degrader assay [OCI-LY1] DC50 individual replicates, single replicate values
# [15] = read-out: MSD degrader assay [OCI-Ly1] DC50, geometric mean, OCI-Ly1 cells, 2 h incubation
# [16] = read-out: BCL6 TR-FRET IC50, geometric mean, BCOR-AF633 peptide, 2 h incubation
# [17] = reversed-phase HPLC on Phenomenex Luna C8 column
SMILES,"Dmax [1, 12]","Dmax [1, 13]",degradation of BCL6 (in words) [1],"MSD degrader assay [OCI-Ly1] Dmax ([1]; OCI-Ly1 cells, 2 h)","DC50 [1, 14]","DC50 [1, 15]","microsomal CLint at 0.5 h, 1 µM [2]",PAMPA (pH 7.4) (in vitro [6]),BCL6 TR-FRET pIC50 mean (human BCL6 BTB domain [7]),IC50 (human BCL6 BTB domain [7]; [16]),IC50 (human BCL6 BTB domain [8]),"microsomal CLint at 0.5 h, 1 µM ([3]; both sexes, pH 7.4)","microsomal CLint at 0.5 h, 1 µM ([4]; female, Sprague-Dawley, pH 7.4)","chromatographic logD [5, 17]",further results
"C[C@@H]1C[C@H](O)CN(c2ncc(Cl)c(Nc3ccc4c(c3)c3c(c(=O)n4C)OCC(F)(F)[C@H](C4CC4)N3)n2)C1 [12b CCT373567, (S)-10-((5-Chloro-2-((3S,5R)-3-hydroxy-5-methylpiperidin-1-yl)pyrimidin-4-yl)amino)-2-cyclopropyl-3,3-difluoro-7-methyl-1,2,3,4-tetrahydro-[1,4]oxazepino[2,3-c]quinolin-6(7H)-one]",< 30%,< 30%,no degradation was seen,> 30%,> 2000 nM,> 2000 nM,90 µL/min/mg,16 ×10–6 cm s–1,8.5554,2.8 nM,3.9 nM and 2.4 nM (2×) and 2.6 nM,,,,"degradation of BCL6 (in words) ([1]; listed as 12b): nondegrading isomer; DC50 (BCL6 in Karpas 422 cells): > 2000 nM; microsomal CLint at 1 μM ([3]; both sexes, pH 7.4): 3 µL/min/mg; CLint (HLM) [3]: low clearance; microsomal CLint at 1 μM ([4]; female, Sprague-Dawley, pH 7.4): 3 µL/min/mg; CLint (RLM) [4]: low clearance; chromatographic logD [5]: 2.9; IC50 (human BCL6 BTB domain [7]; read-out: BCL6 TR-FRET IC50 individual replicates, single replicate values): 2.8 nM; GI50 (HT): 362 nM; GI50 (OCI-Ly1): 83 nM; GI50 (OCI-Ly3): 2140 nM; GI50 (SU-DHL-4): 820 nM; GI50 (Karpas 422): 38 nM"
"Cn1c(=O)c2c(c3cc(Nc4nc(N5CCC(F)(F)[C@@H](CO)C5)ncc4Cl)ccc31)N[C@@H](C1CC1)C(F)(F)CO2 [9a, (S)-10-((5-Chloro-2-((R)-4,4-difluoro-3-(hydroxymethyl)piperidin-1-yl)pyrimidin-4-yl)amino)-2-cyclopropyl-3,3-difluoro-7-methyl-1,2,3,4-tetrahydro-[1,4]oxazepino[2,3-c]quinolin-6(7H)-one]",76.7%,82.8%,fully degraded the protein,83%,2.5 nM and 3 nM,2.7 nM,142 µL/min/mg,21 ×10–6 cm s–1,8.8118,1.5 nM,1.3 nM and 2.2 nM (2×) and 0.9 nM and 4 nM,14 µL/min/mg,9 µL/min/mg,3.2,"MSD degrader assay [OCI-LY1] pDC50 mean ([1]; mean of replicates): 8.5622; DC50 ([1]; read-out: Calculated free DC50 [OCI-Ly1], DC50 corrected with fu,media): 0.24 nM; MSD degrader assay [OCI-LY1] Dmax individual replicates ([1]; single replicate values): 89.0%; Aq. Sol. (HPLC solubility assay): 13^f μM and 13 ^e μM; fraction unbound (in vitro [9]; bovine, read-out: fu,media): 0.088"
"C[C@@H]1CN(c2ncc(Cl)c(Nc3ccc4c(c3)n(CCC(C)(C)O)c(=O)n4C)n2)C[C@H](C)C1(F)F [2 CCT369260, 5-((5-Chloro-2-((3R,5S)-4,4-difluoro-3,5-dimethylpiperidin-1-yl)pyrimidin-4-yl)amino)-3-(3-hydroxy-3-methylbutyl)-1-methyl-1,3-dihydro-2H-benzo[d]imidazol-2-one]",,99.3%,,,,,,33 ×10–6 cm s–1,,,,11 µL/min/mg,10 µL/min/mg,4.3,"CLint (MLM) [2]: 78 μL/min/mg protein; solubility kinetic at 20 h (NMR solubility assay): 11 µM; fu,media (in vitro [9]): 0.022; fraction unbound (in vitro [10]): 0.0004; CL as % Qh [11]: 22 % Qh; CL ([11]; 1 mg/kg i.v.): 1.19 L/h/kg; Vd ([11]; mouse, in vivo, 1 mg/kg, read-out: Vss): 2.1 L/kg; half-life at 6 h ([11]; mouse, in vivo, po, 5 mg/kg): 1.4 h; Cmax ([11]; mouse, in vivo, 1 mg/kg i.v. and 5 mg/kg p.o.): 1580 nM; F ([11]; oral bioavailability, 5 mg/kg p.o. vs 1 mg/kg i.v.): 54%; CLu ([11]; unbound clearance): 2803.9 L/h/kg"
